Experimental findings from US20250064941A1, “SIGLEC LIGANDS, CONJUGATES, AND METHODS OF USE THEREOF” (Osprey Biopharmaceuticals, Inc., priority 2023, published 2025) are described below.

Molecules are shown by their SMILES. pKd: −log10 of the molar value.

Assay [1] has as its target T1, mouse Siglec-2-Fc-Avi (CD22) (Mus musculus, UniProt P35329).
T1 construct: made in house
T1 sequence (P35329 22-708 limits assumed): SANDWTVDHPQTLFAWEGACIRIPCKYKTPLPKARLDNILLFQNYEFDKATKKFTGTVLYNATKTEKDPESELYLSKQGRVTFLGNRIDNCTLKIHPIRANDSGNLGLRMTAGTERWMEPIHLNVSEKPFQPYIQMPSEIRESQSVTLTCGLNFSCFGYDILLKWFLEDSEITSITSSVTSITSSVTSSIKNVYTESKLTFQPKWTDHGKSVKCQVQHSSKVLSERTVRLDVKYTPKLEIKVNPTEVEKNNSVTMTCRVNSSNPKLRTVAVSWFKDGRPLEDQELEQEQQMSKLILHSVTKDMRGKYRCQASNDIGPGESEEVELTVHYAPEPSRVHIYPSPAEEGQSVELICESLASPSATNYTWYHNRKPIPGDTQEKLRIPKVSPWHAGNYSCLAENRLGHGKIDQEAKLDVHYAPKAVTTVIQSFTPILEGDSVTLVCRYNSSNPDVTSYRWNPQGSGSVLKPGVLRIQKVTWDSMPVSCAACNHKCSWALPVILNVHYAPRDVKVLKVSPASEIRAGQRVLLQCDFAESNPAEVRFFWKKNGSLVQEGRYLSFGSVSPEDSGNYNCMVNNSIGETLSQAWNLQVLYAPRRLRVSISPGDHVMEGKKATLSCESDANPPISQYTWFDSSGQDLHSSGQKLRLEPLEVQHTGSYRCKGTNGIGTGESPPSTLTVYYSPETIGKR
As to the kind of experiment: SPR binding affinity to mouse CD22. Conditions: steady-state analysis. How it is done:
(§1) Prior to immobilization, CD22 proteins were treated with SialoExo (Genovis, Cat #G1-SM1-020) for 4 hours at 37° C. to remove native sialic acid residues.
(§2) Capture of biotinylated CD22 constructs was performed using a Cytiva SA chip (BR100398) on a Biacore 8K instrument.
(§3) Binding experiments of Siglec-ligand conjugated proteins or Siglec ligand compounds were performed on the surfaces prepared above in 10 mM HEPES, 150 mM NaCl, 0.05% Tween-20, pH 7.5, 1% DMSO as the running buffer. […] The compounds were then allowed to dissociate from the surface for 120 seconds. […] Solvent correction was performed using 0.5, 1, 1.5, and 2% DMSO spike into running buffer without DMSO. […] Data was analyzed using steady-state analysis in Biacore Insight Evaluation Software, version 3.0 for Siglec ligand compounds.
(In general: In SPR one partner is held on a chip, and binding of the other changes the refractive index at the surface.)

Assay [2] deals with T2, human Siglec-2/CD22 protein (Homo sapiens, UniProt P20273).
T2 construct: purchased Acro Biosystems SI2-H82E3
T2 sequence (P20273 20-847): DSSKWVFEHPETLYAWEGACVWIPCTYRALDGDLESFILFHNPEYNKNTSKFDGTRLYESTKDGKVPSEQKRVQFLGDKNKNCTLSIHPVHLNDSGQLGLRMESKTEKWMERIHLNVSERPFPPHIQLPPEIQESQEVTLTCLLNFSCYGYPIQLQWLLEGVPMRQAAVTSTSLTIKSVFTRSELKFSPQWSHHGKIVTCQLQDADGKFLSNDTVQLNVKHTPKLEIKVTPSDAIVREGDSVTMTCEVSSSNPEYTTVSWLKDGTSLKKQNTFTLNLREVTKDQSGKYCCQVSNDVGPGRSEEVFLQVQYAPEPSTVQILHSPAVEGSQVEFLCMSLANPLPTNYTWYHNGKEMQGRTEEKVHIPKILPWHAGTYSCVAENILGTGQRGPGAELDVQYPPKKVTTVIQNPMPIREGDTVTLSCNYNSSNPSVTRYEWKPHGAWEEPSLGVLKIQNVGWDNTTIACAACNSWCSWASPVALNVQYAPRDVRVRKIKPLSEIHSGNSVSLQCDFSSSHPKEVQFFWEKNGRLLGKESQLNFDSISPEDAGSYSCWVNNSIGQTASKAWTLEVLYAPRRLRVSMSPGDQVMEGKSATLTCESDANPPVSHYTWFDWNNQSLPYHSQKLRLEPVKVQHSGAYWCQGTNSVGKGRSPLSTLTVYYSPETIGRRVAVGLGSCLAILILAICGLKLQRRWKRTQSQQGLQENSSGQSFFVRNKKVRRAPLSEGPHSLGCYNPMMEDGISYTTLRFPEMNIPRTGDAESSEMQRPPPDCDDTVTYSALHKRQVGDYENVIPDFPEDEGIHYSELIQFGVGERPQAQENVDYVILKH
As to the kind of experiment: SPR binding affinity to human CD22. Conditions: steady-state analysis. How it is done:
as §1, §2, §3

Turning to `C#CCOCCCCCCO[C@]1(C(=O)O)C[C@H](O)[C@@H](NC(=O)NCC)[C@H]([C@H](O)[C@H](O)CNC(=O)Cc2ccc(Cl)cc2)O1` [Compound 87, (2R,4S,5R,6R)-6-((1R,2R)-3-(2-(4-chlorophenyl)acetamido)-1,2-dihydroxypropyl)-5-(3-ethylureido)-4-hydroxy-2-((6-(prop-2-yn-1-yloxy)hexyl)oxy)tetrahydro-2H-pyran-2-carboxylic acid], the pKd is 5.00 to 6.00 in assay [1] and greater than 6.00 in assay [2].

With `C#CCOCCOCCO[C@]1(C(=O)O)C[C@H](O)[C@@H](NC(C)=O)[C@H]([C@H](O)[C@H](O)CNCc2cccc(Oc3ccccc3)c2)O1` [Compound 17, (2R,4S,5R,6R)-5-acetamido-6-((1R,2R)-1,2-dihydroxy-3-((3-phenoxybenzyl)amino)propyl)-4-hydroxy-2-(2-(2-(prop-2-yn-1-yloxy)ethoxy)ethoxy)tetrahydro-2H-pyran-2-carboxylic acid], the results for the pKd in assay [1] and in assay [2] were less than 5.00 and greater than 6.00, respectively.

As to `CC(=O)NCCOCCOCCOCCOCCn1cc(COCCCCCCO[C@]2(C(=O)O)C[C@H](O)[C@@H](NC(=O)CO)[C@H]([C@H](O)[C@H](O)CNC(=O)Cc3ccc(C(F)F)cc3)O2)nn1` [Compound 261, (2R,4S,5R,6R)-6-((1R,2R)-3-(2-(4-(difluoromethyl)phenyl)acetamido)-1,2-dihydroxypropyl)-4-hydroxy-5-(2-hydroxyacetamido)-2-((6-((1-(2-oxo-6,9,12,15-tetraoxa-3-azaheptadecan-17-yl)-1H-1,2,3-triazol-4-yl)methoxy)hexyl)oxy)tetrahydro-2H-pyran-2-carboxylic acid], the pKd in assay [1] and in assay [2] was greater than 6.00 throughout.

Regarding `C#CCOCCOP(=O)(O)OCCCCCCO[C@]1(C(=O)O)C[C@H](O)[C@@H](NC(=O)CO)[C@H]([C@H](O)[C@H](O)CNC(=O)Cc2ccc(C(F)F)cc2)O1` [Compound 215, (2R,4S,5R,6R)-6-((1R,2R)-3-(2-(4-(difluoromethyl)phenyl)acetamido)-1,2-dihydroxypropyl)-4-hydroxy-2-((6-((hydroxy(2-(prop-2-yn-1-yloxy)ethoxy)phosphoryl)oxy)hexyl)oxy)-5-(2-hydroxyacetamido)tetrahydro-2H-pyran-2-carboxylic acid], the pKd in assay [1] is less than 5.00; in assay [2], greater than 6.00.

With `C#CCOCCOCCNc1c(NCCCCCCO[C@]2(C(=O)O)C[C@H](O)[C@@H](NC(=O)CO)[C@H]([C@H](O)[C@H](O)CNC(=O)c3ccc(Cl)cc3)O2)c(=O)c1=O` [Compound 254, (2R,4S,5R,6R)-6-((1R,2R)-3-(4-chlorobenzamido)-1,2-dihydroxypropyl)-2-((6-((3,4-dioxo-2-((2-(2-(prop-2-yn-1-yloxy)ethoxy)ethyl)amino)cyclobut-1-en-1-yl)amino)hexyl)oxy)-4-hydroxy-5-(2-hydroxyacetamido) tetrahydro-2H-pyran-2-carboxylic acid], the negative-log Kd (pKd) in assay [1] is 5.00 to 6.00; in assay [2], greater than 6.00.

As to `C#CCOCCCCCCS[C@]1(C(=O)O)C[C@H](O)[C@@H](NC(=O)CO)[C@H]([C@H](O)[C@H](O)CNC(=O)c2ccc(Cl)cc2)O1` [Compound 251, (2S,4S,5R,6R)-6-((1R,2R)-3-(4-chlorobenzamido)-1,2-dihydroxypropyl)-4-hydroxy-5-(2-hydroxyacetamido)-2-((6-(prop-2-yn-1-yloxy)hexyl)thio) tetrahydro-2H-pyran-2-carboxylic acid], the pKd in assay [1] and in assay [2] was 5.00 to 6.00 each time.

In the case of `CC(=O)NCCOCCOCCOCCOCCOC(=O)NCCCCCCO[C@]1(C(=O)O)C[C@H](O)[C@@H](NC(C)=O)[C@H]([C@H](O)[C@H](O)CNC(=O)c2cccc(Cl)c2)O1` [Compound 268, (2R,4S,5R,6R)-5-acetamido-6-((1R,2R)-3-(3-chlorobenzamido)-1,2-dihydroxypropyl)-2-((2,19-dioxo-6,9,12,15,18-pentaoxa-3,20-diazahexacosan-26-yl)oxy)-4-hydroxytetrahydro-2H-pyran-2-carboxylic acid], the results for the pKd in assay [1] and in assay [2] were less than 5.00 and 5.00 to 6.00, respectively.

Consider `C#CCOCCOCCNc1c(NCCCCCCO[C@]2(C(=O)O)C[C@H](O)[C@@H](NC(=O)CO)[C@H]([C@H](O)[C@H](O)CNC(=O)c3ccccc3)O2)c(=O)c1=O` [Compound 230, (2R,4S,5R,6R)-6-((1R,2R)-3-benzamido-1,2-dihydroxypropyl)-2-((6-((3,4-dioxo-2-((2-(2-(prop-2-yn-1-yloxy)ethoxy)ethyl)amino)cyclobut-1-en-1-yl)amino)hexyl)oxy)-4-hydroxy-5-(2-hydroxyacetamido)tetrahydro-2H-pyran-2-carboxylic acid], for which the pKd in assay [1] and in assay [2] was 5.00 to 6.00 in each case.

As to `C#CCOCCOCCNc1c(NCCCCCCO[C@]2(C(=O)O)C[C@H](O)[C@@H](NC(=O)CO)[C@H]([C@H](O)[C@H](O)CNC(=O)c3ccccc3Cl)O2)c(=O)c1=O` [Compound 229, (2R,4S,5R,6R)-6-((1R,2R)-3-(2-chlorobenzamido)-1,2-dihydroxypropyl)-2-((6-((3,4-dioxo-2-((2-(2-(prop-2-yn-1-yloxy)ethoxy)ethyl)amino)cyclobut-1-en-1-yl)amino)hexyl)oxy)-4-hydroxy-5-(2-hydroxyacetamido)tetrahydro-2H-pyran-2-carboxylic acid], the pKd in assay [1] and in assay [2] was 5.00 to 6.00 in each case.

Take `C#CCOCCCCCCO[C@]1(C(=O)O)C[C@H](O)[C@@H](Nc2c(NC)c(=O)c2=O)[C@H]([C@H](O)[C@H](O)CNC(=O)Cc2ccc(Cl)cc2)O1` [Compound 191, (2R,4S,5R,6R)-6-((1R,2R)-3-(2-(4-chlorophenyl)acetamido)-1,2-dihydroxypropyl)-4-hydroxy-5-((2-(methylamino)-3,4-dioxocyclobut-1-en-1-yl)amino)-2-((6-(prop-2-yn-1-yloxy)hexyl)oxy)tetrahydro-2H-pyran-2-carboxylic acid]: the pKd in assay [1] was less than 5.00; in assay [2], greater than 6.00.

Consider `C#CCOCCCCCCS[C@]1(C(=O)O)C[C@H](O)[C@@H](NC(=O)CO)[C@H]([C@H](O)[C@H](O)CNC(=O)c2cccc(Oc3ccccc3)c2)O1` [Compound 255, (2S,4S,5R,6R)-6-((1R,2R)-1,2-dihydroxy-3-(3-phenoxybenzamido)propyl)-4-hydroxy-5-(2-hydroxyacetamido)-2-((6-(prop-2-yn-1-yloxy)hexyl)thio) tetrahydro-2H-pyran-2-carboxylic acid], for which the pKd was 5.00 to 6.00 in assay [1] and greater than 6.00 in assay [2].

On to `C#CCOCCCCCCO[C@]1(C(=O)O)C[C@H](O)[C@@H](NC(=O)CO)[C@H]([C@H](O)[C@H](O)CNC(=O)Cc2ccc(N3CCC(O)CC3)cc2)O1` [Compound 194, (2R,4S,5R,6R)-6-((1R,2R)-1,2-dihydroxy-3-(2-(4-(4-hydroxypiperidin-1-yl)phenyl)acetamido)propyl)-4-hydroxy-5-(2-hydroxyacetamido)-2-((6-(prop-2-yn-1-yloxy)hexyl)oxy)tetrahydro-2H-pyran-2-carboxylic acid], for which the pKd in assay [1] and in assay [2] was 5.00 to 6.00 each time.

Broadly, the pKd is −log10 of the Kd, conventionally taken in molar units. Lower therefore signals a high Kd.
